Test results reported in PMC12013494, “Covalent inhibition of the SARS-CoV-2 NiRAN domain via an active-site cysteine” (The Journal of Biological Chemistry, 2025).

Key:
[1] = target: T1, SARS-CoV-2 nsp12 NiRAN domain (Severe acute respiratory syndrome coronavirus 2, UniProt P0DTD1); assay: biochemical; conditions: for IC50 / IC50 for NiRAN-dependent AMPylation of nsp9: n = 4; for IC50: read-out: IC50 for NiRAN-dependent AMPylation of nsp9
[2] = target: nsp12 (Severe acute respiratory syndrome coronavirus 2, UniProt P0DTD1); type: binding, SARS-CoV-2
[3] = target: T1, SARS-CoV-2 nsp12 NiRAN domain; type: biochemical
[4] = target: SARS-CoV-2 nsp12 (Severe acute respiratory syndrome coronavirus 2, UniProt P0DTD1); type: binding
[5] = target: SARS-CoV-1 nsp12 (Severe acute respiratory syndrome coronavirus, UniProt P0C6X7); type: binding
[6] = target: MERS nsp12 (Middle East respiratory syndrome-related coronavirus, UniProt K9N7C7); type: binding, MERS-CoV
MERS nsp12, sequence (K9N7C7 4378-5310 limits assumed): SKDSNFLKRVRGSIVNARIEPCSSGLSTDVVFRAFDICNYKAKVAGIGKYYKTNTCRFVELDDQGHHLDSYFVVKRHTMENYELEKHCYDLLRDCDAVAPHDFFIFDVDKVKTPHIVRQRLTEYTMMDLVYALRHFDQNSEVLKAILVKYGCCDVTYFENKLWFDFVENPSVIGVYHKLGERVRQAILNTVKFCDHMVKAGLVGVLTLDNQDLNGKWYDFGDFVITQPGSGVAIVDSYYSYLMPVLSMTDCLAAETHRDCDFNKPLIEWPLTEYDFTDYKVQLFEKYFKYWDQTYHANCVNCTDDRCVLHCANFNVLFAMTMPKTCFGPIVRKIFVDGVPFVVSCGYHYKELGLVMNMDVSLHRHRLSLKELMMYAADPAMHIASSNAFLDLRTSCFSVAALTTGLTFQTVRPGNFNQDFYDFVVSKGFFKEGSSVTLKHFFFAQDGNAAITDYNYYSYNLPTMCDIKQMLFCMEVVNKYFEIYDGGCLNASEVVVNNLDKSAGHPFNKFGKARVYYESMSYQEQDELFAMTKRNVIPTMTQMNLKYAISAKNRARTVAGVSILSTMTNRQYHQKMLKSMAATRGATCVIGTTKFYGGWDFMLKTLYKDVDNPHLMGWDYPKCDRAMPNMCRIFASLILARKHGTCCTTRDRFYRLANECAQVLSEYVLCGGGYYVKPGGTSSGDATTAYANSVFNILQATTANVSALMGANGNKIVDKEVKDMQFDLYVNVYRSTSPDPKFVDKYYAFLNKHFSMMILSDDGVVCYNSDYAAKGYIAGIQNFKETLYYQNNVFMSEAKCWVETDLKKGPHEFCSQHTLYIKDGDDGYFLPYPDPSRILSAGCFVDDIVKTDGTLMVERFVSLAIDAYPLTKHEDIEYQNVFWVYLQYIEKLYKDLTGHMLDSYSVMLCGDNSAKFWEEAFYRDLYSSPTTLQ

[7] = target: human SelO (Homo sapiens, UniProt Q9BVL4, U667C); type: binding
human SelO, sequence (Q9BVL4 with tags, fused parts or gaps U667C limits assumed): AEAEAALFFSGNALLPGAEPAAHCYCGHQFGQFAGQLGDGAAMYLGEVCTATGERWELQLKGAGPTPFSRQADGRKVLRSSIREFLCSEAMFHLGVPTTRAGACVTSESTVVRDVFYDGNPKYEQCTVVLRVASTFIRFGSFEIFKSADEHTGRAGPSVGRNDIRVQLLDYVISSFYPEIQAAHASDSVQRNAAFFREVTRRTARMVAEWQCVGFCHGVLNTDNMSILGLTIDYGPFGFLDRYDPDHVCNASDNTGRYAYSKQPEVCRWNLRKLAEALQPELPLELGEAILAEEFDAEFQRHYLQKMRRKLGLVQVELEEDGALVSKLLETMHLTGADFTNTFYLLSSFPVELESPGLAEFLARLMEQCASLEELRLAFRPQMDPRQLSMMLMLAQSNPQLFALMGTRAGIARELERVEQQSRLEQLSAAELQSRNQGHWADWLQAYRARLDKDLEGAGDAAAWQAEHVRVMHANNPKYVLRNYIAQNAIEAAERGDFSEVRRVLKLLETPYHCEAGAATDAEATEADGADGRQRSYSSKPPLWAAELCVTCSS

[8] = target: nsp12 RdRp (Severe acute respiratory syndrome coronavirus 2, UniProt P0DTD1); type: biochemical, SARS-CoV-2
[9] = target: T2, Flag-nsp12 (Severe acute respiratory syndrome coronavirus 2, UniProt P0DTD1); type: cell-based, SARS-CoV-2
[10] = test system: SARS-CoV-2-Wu-1-zsGreen; assay: microbe, parasite or virus in culture; type: cell-based; conditions: for EC50: Severe acute respiratory syndrome coronavirus 2, read-out: EC50 for viral replication (infectivity)
[11] = target: T2, Flag-nsp12; type: cell-based, SARS-CoV-2; remark: listed apart in the source
[12] = test system: SARS-CoV-2; conditions: cited from earlier work
[13] = target: SARS-CoV-2 main protease; conditions: cited from earlier work
[14] = test system: NiRAN; conditions: cited from earlier work

## O=c1cc(CCl)nc2ccc(Cl)cn12 [NCI-1]
[1]
  IC50: 7.32 µM
[2]
  effect on thermal stability of nsp12: increase in the thermal stability of nsp12
[3]
  inhibition of NiRAN-dependent RNAylation of nsp9: inhibition of NiRAN-dependent RNAylation of nsp9
[4]
  covalent binding to nsp12 (intact mass shift): covalent addition

## COC(=O)c1cnn2c(O)cc(CCl)nc12 [NCI-2, methyl 5-(chloromethyl)-7-hydroxypyrazolo[1,5-a]pyrimidine-3-carboxylate]
[1]
  Ki: 16.3 µM
  IC50: 4.36 µM
[1]; read-out: rate of inactivation constant kinact
  kinact: 0.0024 s⁻¹
[1]; read-out: second order rate constant kinact/Ki
  kinact/KI: 147 M⁻¹ s⁻¹
[2]
  effect on thermal stability of nsp12: increase in the thermal stability of nsp12
[3]
  inhibition of NiRAN-dependent RNAylation of nsp9: inhibition of NiRAN-dependent RNAylation of nsp9
[4]
  covalent binding to nsp12 (intact mass shift): covalent addition
[5]
  covalent binding to SARS-CoV-1 nsp12: covalently binds
[6]
  binding to MERS NiRAN (nsp12): fails to bind
[7]
  binding to SelO: fails to bind
[8]
  effect on nsp12 polymerase (RdRp) activity: did not impact nsp12 polymerase activity
[9]
  RNAylation activity of Flag-nsp12 from treated cells: marked reduction in its ability to RNAylate nsp9
[10]
  concentration at which inhibition of viral replication was observed: 200 µM
  EC50: > 200 µM

## C#CCOC(=O)c1cnn2c(O)cc(CCl)nc12 [NCI-3, Prop-2-yn-1-yl 5-(chloromethyl)-7-hydroxypyrazolo[1,5-a]pyrimidine-3-carboxylate]
[1]
  IC50: 10.4 µM
[11]
  binding to nsp12 in cells (biotinylation after click reaction): major biotinylated species corresponding to nsp12

## C#CCNc1cc(CCl)nc2c(C(=O)OC)cnn12 [SW395929-1, Methyl 5-(chloromethyl)-7-(prop-2-yn-1-ylamino)pyrazolo[1,5-a]pyrimidine-3-carboxylate]
[1]
  IC50 for NiRAN-dependent AMPylation of nsp9: No activity up to 500 μM

## O=C(O)c1cnn2c(O)cc(CCl)nc12 [SW396061-1, 5-(Chloromethyl)-7-hydroxypyrazolo[1,5-a]pyrimidine-3-carboxylic acid]
[1]
  IC50 for NiRAN-dependent AMPylation of nsp9: No activity up to 500 μM

## C#CCNC(=O)c1cnn2c(O)cc(CCl)nc12 [SW396062-1, 5-(Chloromethyl)-7-hydroxy-N-(prop-2-yn-1-yl)pyrazolo[1,5-a]pyrimidine-3-carboxamide]
[1]
  IC50: > 500 µM

## COC(=O)c1cnn2c(O)cc(CO)nc12 [SW396063-1, Methyl 7-hydroxy-5-(hydroxymethyl)pyrazolo[1,5-a]pyrimidine-3-carboxylate]
[1]
  IC50: 371 µM

## COC(=O)c1cnn2c(O)cc(C=O)nc12 [SW396064-1, Methyl 5-formyl-7-hydroxypyrazolo[1,5-a]pyrimidine-3-carboxylate]
[1]
  IC50 for NiRAN-dependent AMPylation of nsp9: No activity up to 500 μM

## COC(=O)c1cnn2c(O)cc(/C=C/C(=O)OC(C)(C)C)nc12 [SW396065-1, Methyl (E)-5-(3-(tert-butoxy)-3-oxoprop-1-en-1-yl)-7-hydroxypyrazolo[1,5-a]pyrimidine-3-carboxylate]
[1]
  IC50 for NiRAN-dependent AMPylation of nsp9: No activity up to 500 μM

## COC(=O)c1cnn2c(O)cc(/C=C/C(=O)O)nc12 [SW396066-1, (E)-3-(7-hydroxy-3-(methoxycarbonyl)pyrazolo[1,5-a]pyrimidin-5-yl)acrylic acid]
[1]
  IC50 for NiRAN-dependent AMPylation of nsp9: No activity up to 500 μM

## COC(=O)c1cnn2c(O)cc(/C=C/C(N)=O)nc12 [SW396067-1, Methyl (E)-5-(3-amino-3-oxoprop-1-en-1-yl)-7-hydroxypyrazolo[1,5-a]pyrimidine-3-carboxylate]
[1]
  IC50 for NiRAN-dependent AMPylation of nsp9: No activity up to 500 μM

## COC(=O)c1cn(C)n2c(=O)cc(CCl)nc12 [SW396262-1, Methyl 5-(chloromethyl)-1-methyl-7-oxo-1,7-dihydropyrazolo[1,5-a]pyrimidine-3-carboxylate]
[1]
  IC50: > 500 µM

## COC(=O)c1cnn2c(OC)cc(CCl)nc12 [SW396271-1, Methyl 5-(chloromethyl)-7-methoxypyrazolo[1,5-a]pyrimidine-3-carboxylate]
[1]
  IC50: > 500 µM

## COC(=O)c1cnn2c(O)cc(C(C)Cl)nc12 (stereo not shown) [SW396272-1, Methyl 5-(1-chloroethyl)-7-hydroxypyrazolo[1,5-a]pyrimidine-3-carboxylate]
[1]
  IC50 for NiRAN-dependent AMPylation of nsp9: No activity up to 500 μM

## COC(=O)c1cnn2c(O)cc(C#N)nc12 [SW396744-1, Methyl 5-cyano-7-hydroxypyrazolo[1,5-a]pyrimidine-3-carboxylate]
[1]
  IC50 for NiRAN-dependent AMPylation of nsp9: No activity up to 500 μM

## COC(=O)c1cnn2c(O)cc(CCCl)nc12 [SW398309-1, Methyl 5-(2-chloroethyl)-7-hydroxypyrazolo[1,5-a]pyrimidine-3-carboxylate]
[1]
  IC50 for NiRAN-dependent AMPylation of nsp9: No activity up to 500 μM

## COC(=O)c1cnn2c(O)cc(CCO)nc12 [SW398310-1, Methyl 7-hydroxy-5-(2-hydroxyethyl)pyrazolo[1,5-a]pyrimidine-3-carboxylate]
[1]
  IC50 for NiRAN-dependent AMPylation of nsp9: No activity up to 500 μM

## C#Cc1cc(O)n2ncc(C(=O)OC)c2n1 [SW461447-1, Methyl 5-ethynyl-7-hydroxypyrazolo[1,5-a]pyrimidine-3-carboxylate]
[1]
  IC50 for NiRAN-dependent AMPylation of nsp9: No activity up to 500 μM

## COC(=O)c1cnn2c(O)cc(Cl)nc12 [SW461448-1]
[1]
  IC50 for NiRAN-dependent AMPylation of nsp9: No activity up to 500 μM

## CC(C)(C)[C@H](NC(=O)C(F)(F)F)C(=O)N1C[C@H]2[C@@H]([C@H]1C(=O)N[C@H](C#N)C[C@@H]1CCNC1=O)C2(C)C [nirmatrelvir]
[12]
  EC50: 0.075 µM
[13]
  Ki: 0.003 µM

## CCC(CC)COC(=O)[C@H](C)N[P@](=O)(OC[C@H]1O[C@@](C#N)(c2ccc3c(N)ncnn23)[C@H](O)[C@@H]1O)Oc1ccccc1 [remdesivir, reference compound]
[10]
  EC50: 0.64 µM
[14]
  inhibition of NiRAN activity: inhibit NiRAN activity
